Series [1] relates to normal Human Adult Primary Epidermal Keratinocyte cell line. The settings on record: 72 h.
Description: For the Keratinocyte assay, normal Human Adult Primary Epidermal Keratinocyte cell line (ATCC PCS-200-011) was maintained in EPIUFE® Medium, with 60 μM calcium (Thermo MEPISOOCA) supplemented with Human Keratinocyte Growth Supplement, 100 U/mL penicillin, and 100 μg/mL streptomycin at 37° C. with 5% C02. For experiments, cells were seeded at 70% confluence per well in 100 μL of medium in 96-well plates. Reverse transfection was done on the cells using Lipofectamine 3000 (Life Technologies) with plasmids according to manufacturer's instructions. Briefly, 0.3 μL transfection reagent per 100 ng DNA were incubated with P3000 reagent and Opti-Mem prior to addition of cells. After 16 hours, medium was removed and replaced with dosing medium.
Each ARE tested was prepared in DMSO. Dosing medium was prepared at the time of treatment by serial diluting stock solution into medium. Ethanol concentrations in media never exceeded 0.1%. […] Negative control wells contained 100 L medium/well with 1 μL of ethanol/mL of medium and an appropriate amount of DMSO. […] Cells were incubated 72 hours at 37° C. without CO2.
Series [2] relates to MDA-kb2 breast cancer cell. In words: MDA-kb2 cell viability in Example 13. The class given is cell-based.
Series [3] can be described thus: Solubility screening tests in 8 solvent systems. The class given is physicochemical. The method, then:
Solubility screening tests were performed in 8 solvent systems: (1) Transcutol: Ethanol: Isopropyl myristate (IPM) 2:3:5 (v:v); (2) Transcutol: Ethanol 3:7 (v:v); (3) Ethanol: Propylene Glycol 1:1 (v:v); (4) Ethanol:H2O 7:3 (v:v); (5) IPM; (6) Ethanol:Tween 80: Cetyl Alcohol 90:5:5 (w:w); (7) CCT: Tween 80: Cetyl Alcohol 90:5:5 (w:w); and (8) CCT: Isopropanol 1:1 (v: v). […] One objective was to identify solvent systems for solution formulation at targeted API concentration of 1% by weight. Another objective was to identify solvents that are potentially good penetration enhancers and yet clinically viable. Since cetyl alcohol is solid, the solvent systems with them were prepared in weight ratios.

A further series deals with T1, androgen receptor (AR) (Homo sapiens, UniProt P10275).
T1 construct: human keratinocytes transfected with an AR luciferase reporter gene; endogenous in cells; host or cells: normal human adult primary epidermal keratinocytes (ATCC PCS-200-011)
T1 sequence (P10275 1-920): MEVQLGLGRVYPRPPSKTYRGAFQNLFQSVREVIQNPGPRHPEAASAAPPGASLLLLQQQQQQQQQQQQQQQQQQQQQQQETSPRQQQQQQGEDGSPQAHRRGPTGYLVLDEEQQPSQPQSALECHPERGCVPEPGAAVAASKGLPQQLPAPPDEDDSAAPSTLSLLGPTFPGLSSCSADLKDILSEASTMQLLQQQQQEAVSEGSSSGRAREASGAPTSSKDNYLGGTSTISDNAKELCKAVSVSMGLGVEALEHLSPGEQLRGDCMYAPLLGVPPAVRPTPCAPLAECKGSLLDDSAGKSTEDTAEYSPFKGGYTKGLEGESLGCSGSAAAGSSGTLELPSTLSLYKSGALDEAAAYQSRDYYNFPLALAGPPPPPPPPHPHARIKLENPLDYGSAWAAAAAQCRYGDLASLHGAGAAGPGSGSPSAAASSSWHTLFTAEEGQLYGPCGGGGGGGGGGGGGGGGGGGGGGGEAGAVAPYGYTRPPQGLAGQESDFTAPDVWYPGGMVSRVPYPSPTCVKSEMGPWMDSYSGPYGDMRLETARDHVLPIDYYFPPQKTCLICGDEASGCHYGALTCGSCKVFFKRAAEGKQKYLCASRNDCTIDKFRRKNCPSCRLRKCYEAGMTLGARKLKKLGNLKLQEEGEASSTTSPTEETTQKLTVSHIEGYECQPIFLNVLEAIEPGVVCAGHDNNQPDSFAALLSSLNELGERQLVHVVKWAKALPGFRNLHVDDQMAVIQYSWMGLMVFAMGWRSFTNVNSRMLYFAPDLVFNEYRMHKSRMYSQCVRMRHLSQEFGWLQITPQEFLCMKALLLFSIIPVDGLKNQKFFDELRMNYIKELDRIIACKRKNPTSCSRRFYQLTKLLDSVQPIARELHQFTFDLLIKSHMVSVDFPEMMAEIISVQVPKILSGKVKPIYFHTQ
The experiment in a line: Keratinocyte AR luciferase reporter gene assay (Example 10). The class given is cell-based. The settings on record: 24 h, read-out: Gene Activity Reduction. The method, then:
Each ARE tested was prepared in DMSO. […] Ethanol concentrations in media never exceeded 0.1%.
To assess ARE-mediated inhibition, an AR luciferase assay was performed. After washing cells with 1×PBS, 20 μL lysis buffer (25 mM Tris/phosphate, 4 mM EGTA, 1% Triton, 10% glycerol, 2 mM DTT) was added per well, incubated for 5 minutes with gentle shaking and store at −80° C. On the day of assay, the plates were thawed to ambient temperature and 80 μL of assay buffer (25 mM glycylglycine, 15 mM MgCl2. 5 mM ATP, 0.1 mg/ml BSA) was added to each well. Plates are then processed on a microplate reader (POLARstar Omega) by injecting 100 μL of 1 mM D-luciferin per well, followed by chemiluminescence measurement of 3 seconds at onset of injection. Luciferase activity was determined, measured, and normalized to Relative Light Units (RLU). AR reporter gene activity reduction values were calculated as follows: AR reporter gene activity=1−(average signal (treatment group)/average signal (treatment group without drug).
A general note: A reporter such as luciferase makes a cellular process visible.

Like-named read-outs stand apart in the source and are kept apart here.

Regarding `CC12CCC(=O)C=C1C[C@@H](SC(=O)CC13CC4CC(CC(C4)C1)C3)C1C2CCC2(C)C1CC[C@@]21CCC(=O)O1` (stereo partly shown) [SPG-003], the “Cell Viability” value in series [1] (0.62 μM) stood at 92.16 ± 1.30; in series [1] (1.85 μM) it was 73.46 ± 1.11; in series [1] (5.56 μM) it was 66.12 ± 3.09; in series [1] (16.67 μM) it was 55.11 ± 0.16; in series [1] (50 μM), 38.67 ± 2.25; in series [2] (MDA-kb2, 6 μM), 80%. The same compound had a Cell Viability in series [2] (MDA-kb2, 10 μM) of 50%. For the same compound, the solubility result was “good solubility” in series [3] (solvent system (1) Transcutol: Ethanol: Isopropyl myristate (IPM) 2:3:5 (v:v), target 1% by weight); “good solubility” in series [3] (solvent system (2) Transcutol: Ethanol 3:7 (v:v), target 1% by weight); “not soluble” in series [3] (solvent system (3) Ethanol: Propylene Glycol 1:1 (v:v), after extensive sonication); “not soluble” in series [3] (solvent system (4) Ethanol:H2O 7:3 (v:v), after extensive sonication); “not soluble” in series [3] (solvent system (5) IPM, after extensive sonication); “good solubility” in series [3] (solvent system (6) Ethanol:Tween 80: Cetyl Alcohol 90:5:5 (w:w)). The solubility result in series [3] (solvent system (7) CCT: Tween 80: Cetyl Alcohol 90:5:5 (w:w), after extensive sonication) was “not soluble”; in series [3] (solvent system (8) CCT: Isopropanol 1:1 (v: v)), “good solubility”. Moreover, the inhibition at 0.1 µM on androgen receptor (AR) worked out at 21%. For the same compound, on androgen receptor (AR), the inhibition at 1 µM is 31%. Also, the inhibition at 3 µM at androgen receptor (AR) stood at 50%. In addition, the inhibition at 10 µM at androgen receptor (AR) was found to be 93%.

(Values after patent US12319681B2, “Tripartite androgen receptor eliminators, methods and uses thereof” (SPG Therapeutics, Inc., priority 2017, dated 2025).)
